Experimental data published in patent US10544120B2, “Biaryl kinase inhibitors” (BRISTOL-MYERS SQUIBB COMPANY, priority 2015, dated 2020).

target: GST-Xa-hAAK1 (Homo sapiens (Human), UniProt Q2M2I8); assay: AAK1 Kinase Assay; assay type: biochemical; conditions: bacterially expressed GST-Xa-hAAK1 3.5 nM; ATP 22 μM; fluoresceinated peptide 1.5 μM; 3 hours at room temperature; Caliper LabChip 3000
Description: The assays were performed in U-bottom 384-well plates. […] The reactions were initiated by the combination of bacterially expressed, GST-Xa-hAAK1 with substrates and test compounds. The reactions were incubated at room temperature for 3 hours and terminated by adding 60 μl of 35 mM EDTA buffer to each sample. The reactions were analyzed on the Caliper LabChip 3000 (Caliper, Hopkinton, Mass.) by electrophoretic separation of the fluorescent substrate and phosphorylated product. […] Compounds were dissolved at 10 mM in dimethylsulfoxide (DMSO) and evaluated at eleven concentrations. IC50 values were derived by non-linear regression analysis.

Sequence of GST-Xa-hAAK1 (Q2M2I8 whole entry): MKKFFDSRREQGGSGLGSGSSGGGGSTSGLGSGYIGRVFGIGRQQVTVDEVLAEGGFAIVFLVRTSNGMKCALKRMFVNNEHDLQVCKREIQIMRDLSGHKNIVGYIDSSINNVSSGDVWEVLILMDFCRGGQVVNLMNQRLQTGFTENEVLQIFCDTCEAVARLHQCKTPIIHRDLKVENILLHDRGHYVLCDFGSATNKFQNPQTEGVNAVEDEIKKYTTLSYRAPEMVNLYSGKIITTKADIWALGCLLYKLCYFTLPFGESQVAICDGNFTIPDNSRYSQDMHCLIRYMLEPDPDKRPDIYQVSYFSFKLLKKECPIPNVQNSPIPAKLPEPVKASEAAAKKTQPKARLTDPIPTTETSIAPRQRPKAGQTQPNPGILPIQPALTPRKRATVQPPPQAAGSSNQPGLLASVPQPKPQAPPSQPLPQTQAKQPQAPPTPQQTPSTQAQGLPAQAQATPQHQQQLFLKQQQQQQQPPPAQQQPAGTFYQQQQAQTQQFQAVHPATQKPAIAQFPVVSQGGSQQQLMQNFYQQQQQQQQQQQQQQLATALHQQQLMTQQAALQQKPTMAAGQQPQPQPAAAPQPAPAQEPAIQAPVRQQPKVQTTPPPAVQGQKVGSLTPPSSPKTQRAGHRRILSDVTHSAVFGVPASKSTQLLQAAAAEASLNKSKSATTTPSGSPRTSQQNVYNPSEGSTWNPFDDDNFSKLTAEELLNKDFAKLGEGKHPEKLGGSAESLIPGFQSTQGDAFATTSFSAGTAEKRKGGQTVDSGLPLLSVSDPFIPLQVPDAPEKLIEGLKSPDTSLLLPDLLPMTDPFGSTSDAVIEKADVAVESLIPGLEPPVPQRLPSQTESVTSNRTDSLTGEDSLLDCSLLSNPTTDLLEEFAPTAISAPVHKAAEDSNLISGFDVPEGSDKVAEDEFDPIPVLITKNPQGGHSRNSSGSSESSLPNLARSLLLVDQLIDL

| IC50 [nM] | Structure (SMILES) |
| --- | --- |
| 308 | COc1cc(-c2ccc(OC[C@@](C)(N)CC(C)C)c(C(F)(F)F)c2)ncn1 [Example 440, (S)-1-(4-(6-methoxypyrimidin-4-yl)-2-(trifluoromethyl)phenoxy)-2,4-dimethylpentan-2-amine] |
| 1.6 | CCC(C)CC(=O)Nc1cc(-c2ccc(OC[C@@](C)(N)CC(C)C)c(C(F)(F)F)c2)ccn1 (stereo partly drawn) [Example 396, N-(4-(4-(((S)-2-amino-2,4-dimethylpentyl)oxy)-3-(trifluoromethyl)phenyl)pyridin-2-yl)-3-methylpentanamide] |
| 25 | COC(=O)Nc1nccc(-c2cc(F)c(OC[C@@](C)(N)CC(C)C)cc2F)n1 [Example 508, (S)-methyl (4-(4-((2-amino-2,4-dimethylpentyl)oxy)-2,5-difluorophenyl)pyrimidin-2-yl)carbamate] |
| 50 | COc1cc(-c2cnc(OC[C@@](C)(N)CC(C)C)c(C#N)c2)ccn1 [Example 385, (S)-6-((2-amino-2,4-dimethylpentyl)oxy)-2′-methoxy-[3,4′-bipyridine]-5-carbonitrile] |
| 9.7 | Cc1cc(-c2cc(C(F)F)c(OC[C@@](C)(N)CC(C)C)cn2)ncn1 [Example 318, (S)-1-((4-(difluoromethyl)-6-(6-methylpyrimidin-4-yl)pyridin-3-yl)oxy)-2,4-dimethylpentan-2-amine] |
| 7.3 | Cc1cc(-c2ccnc(C(F)(F)F)n2)ccc1OC[C@@](C)(N)CC(C)C [Example 330, (S)-2,4-dimethyl-1-(2-methyl-4-(2-(trifluoromethyl)pyrimidin-4-yl)phenoxy)pentan-2-amine] |
| 512 | Cc1nc(-c2ccnc(C(F)(F)F)c2)ccc1OC[C@@](C)(N)CC(C)C [Example 348, (S)-2,4-dimethyl-1-((6-methyl-2′-(trifluoromethyl)-[2,4′-bipyridin]-5-yl)oxy)pentan-2-amine] |
| 13 | COc1cc(-c2ccc(OC[C@@](C)(N)CC(C)C)c(C)c2)ccn1 [Example 386, (S)-1-(4-(2-methoxypyridin-4-yl)-2-methylphenoxy)-2,4-dimethylpentan-2-amine] |
| 103 | CC(C)C[C@](C)(N)COc1ccc(-c2ccnc(O)n2)cc1C(F)(F)F [Example 317, (S)-4-(4-((2-amino-2,4-dimethylpentyl)oxy)-3 (trifluoromethyl)phenyl)pyrimidin-2-ol] |
| 236 | COC(=O)Nc1nccc(-c2cnc(OC[C@](C)(N)CC(C)C)c(C)c2)n1 [Example 372, (R)-methyl (4-(6-((2-amino-2,4-dimethylpentyl)oxy)-5-methylpyridin-3-yl)pyrimidin-2-yl)carbamate] |
| 789 | Cc1nccc(-c2ccc(OCC(N)(CC(C)C)C(F)(F)F)c(C)n2)n1 (centres unmarked) [Example 491, 1,1,1-trifluoro-4-methyl-2-(((2-methyl-6-(2-methylpyrimidin-4-yl)pyridin-3-yl)oxy)methyl)pentan-2-amine] |
| 82 | CC(C)C[C@](C)(N)COc1ccc(-c2ccnc(C(F)(F)F)c2)nc1C(F)F [Example 356, (S)-1-((6-(difluoromethyl)-2′-(trifluoromethyl)-[2,4′-bipyridin]-5-yl)oxy)-2,4-dimethylpentan-2-amine] |
| 19 | CC(C)C[C@](C)(N)COc1cc(F)c(-c2ccnc(C(F)F)c2)cc1F [Example 510, (S)-1-(4-(2-(difluoromethyl)pyridin-4-yl)-2,5-difluorophenoxy)-2,4-dimethylpentan-2-amine] |
| 126 | Cc1cc(-c2cc(C)c(OC[C@@](C)(N)CC(C)C)cn2)ncn1 [Example 450, (S)-2,4-dimethyl-1-((4-methyl-6-(6-methylpyrimidin-4-yl)pyridin-3-yl)oxy)pentan-2-amine] |
| 298 | COC(=O)Nc1nccc(-c2cnc(OC[C@](C)(N)CC(C)C)c(Cl)c2)n1 [Example 304, (R)-methyl(4-(6-((2-amino-2,4-dimethylpentyl)oxy)-5-chloropyridin-3-yl)pyrimidin-2-yl)carbamate] |
| 3.2 | Cc1nccc(-c2ccc(OC[C@@](C)(N)CC(C)C)c(C)n2)n1 [Example 484, (S)-2,4-dimethyl-1-(2-methyl-6-(2-methylpyrimidin-4-yl)pyridin-3-yloxy)pentan-2-amine] |
| 6.6 | CC(C)C[C@](C)(N)COc1ccc(-c2ccnc(C(F)(F)F)n2)cc1C#N [Example 474, (S)-2-(2-amino-2,4-dimethylpentyloxy)-5-(2-(trifluoromethyl)pyrimidin-4-yl)benzonitrile] |
| 8.5 | Cc1cc(-c2ccc(OC[C@@](C)(N)CC(C)C)c(C(F)(F)F)c2)ncn1 [Example 309, (S)-2,4-dimethyl-1-(4-(6-methylpyrimidin-4-yl)-2-(trifluoromethyl)phenoxy)pentan-2-amine] |
| 0.9 | COC(=O)Nc1nccc(-c2ccc(OC[C@@](C)(N)CC(C)C)c(Cl)c2)n1 [Example 307, (S)-methyl (4-(4-((2-amino-2,4-dimethylpentyl)oxy)-3-chlorophenyl)pyrimidin-2-yl)carbamate] |

| IC50 [nM] | Structure (SMILES) |
| --- | --- |
| 134 | Cc1nccc(-c2cc(F)c(OC[C@@](C)(N)CC(C)C)cc2F)n1 [Example 506, (S)-1-(2,5-difluoro-4-(2-methylpyrimidin-4-yl)phenoxy)-2,4-dimethylpentan-2-amine] |
| 0.6 | Cc1nccc(-c2ccc(OC[C@@](C)(N)CC(C)C)c(C(F)(F)F)c2)n1 [Example 290, (S)-2,4-dimethyl-1-(4-(2-methylpyrimidin-4-yl)-2-(trifluoromethyl)phenoxy)pentan-2-amine] |
| 8.7 | COC(=O)Nc1nccc(-c2ccc(OC[C@@](C)(N)CC(C)C)cc2)n1 [Example 505, (S)-methyl (4-(4-((2-amino-2,4-dimethylpentyl)oxy)phenyl)pyrimidin-2-yl)carbamate] |
| 35 | COC(=O)Nc1nccc(-c2cnc(OC[C@@](C)(N)CC(C)C)c(C)c2)n1 [Example 379, (S)-methyl (4-(6-((2-amino-2,4-dimethylpentyl)oxy)-5-methylpyridin-3-yl)pyrimidin-2-yl)carbamate] |
| 5 | COC(=O)Nc1cc(-c2cc(F)c(OC[C@@](C)(N)CC(C)C)cc2F)ncn1 [Example 507, (S)-methyl (6-(4-((2-amino-2,4-dimethylpentyl)oxy)-2,5-difluorophenyl)pyrimidin-4-yl)carbamate] |
| 0.5 | CC(C)C[C@](C)(N)COc1ccc(-c2ccnc(C(F)F)n2)nc1C(F)F [Example 319, (S)-1-((2-(difluoromethyl)-6-(2-(difluoromethyl)pyrimidin-4-yl)pyridin-3-yl)oxy)-2,4-dimethylpentan-2-amine] |
| 950 | Cc1nccc(-c2cnc(OC[C@](C)(N)CC(C)C)c(C)c2)n1 [Example 263, (R)-2,4-dimethyl-1-((3-methyl-5-(2-methylpyrimidin-4-yl)pyridin-2-yl)oxy)pentan-2-amine] |
| 1290 | Cc1nccc(-c2cc(C#N)c(OC[C@@](C)(N)CC(C)C)cn2)n1 [Example 487, (S)-5-(2-amino-2,4-dimethylpentyloxy)-2-(2-methylpyrimidin-4-yl)isonicotinonitrile] |
| 226 | COC(=O)Nc1cc(-c2ccc(OCC(N)(CC(C)C)C(F)(F)F)c(C)n2)ccn1 (centres unmarked) [Example 273, methyl 5-(2-amino-4-methyl-2-(trifluoromethyl)pentyloxy)-6-methyl-2,4′-bipyridin-2′-ylcarbamate] |
| 1.5 | CC(C)C[C@](C)(N)COc1ccc(-c2ccnc(C(F)F)n2)cc1C#N [Example 315, (S)-2-((2-amino-2,4-dimethylpentyl)oxy)-5-(2-(difluoromethyl)pyrimidin-4-yl)benzonitrile] |
| 1.9 | CC(C)C[C@](C)(N)COc1ccc(-c2cc(N)ncn2)cc1C(F)(F)F [Example 278, (S)-6-(4-((2-amino-2,4-dimethylpentyl)oxy)-3-(trifluoromethyl)phenyl) pyrimidin-4-amine] |
| 1.2 | CCOC(=O)Nc1nccc(-c2ccc(OC[C@@](C)(N)CC(C)C)c(C(F)(F)F)c2)n1 [Example 314, (S)-ethyl (4-(4-((2-amino-2,4-dimethylpentyl)oxy)-3-(trifluoromethyl)phenyl)pyrimidin-2-yl)carbamate] |
| 304 | CCc1cc(-c2cnc(OC[C@@](C)(N)CC(C)C)c(C)c2)ncn1 [Example 447, (S)-1-((5-(6-ethylpyrimidin-4-yl)-3-methylpyridin-2-yl)oxy)-2,4-dimethylpentan-2-amine] |
| 46 | Cc1cc(-c2ccc(OC[C@@](C)(N)CC(C)C)c(C)c2)ncn1 [Example 384, (S)-2,4-dimethyl-1-(2-methyl-4-(6-methylpyrimidin-4-yl)phenoxy)pentan-2-amine] |
| 1.1 | CC(C)C[C@](C)(N)COc1ccc(-c2cc(N)ncn2)cc1Cl [Example 285, (S)-6-(4-((2-amino-2,4-dimethylpentyl)oxy)-3-chlorophenyl)pyrimidin-4-amine] |
| 2.7 | Cc1nc(-c2ccnc(Cl)n2)ccc1OC[C@@](C)(N)CC(C)C [Example 451, (S)-1-((6-(2-chloropyrimidin-4-yl)-2-methylpyridin-3-yl)oxy)-2,4-dimethylpentan-2-amine] |
| 12 | Cc1cc(-c2ccc(OC[C@@](C)(N)CC(C)C)c(Cl)c2)ncn1 [Example 308, (S)-1-(2-chloro-4-(6-methylpyrimidin-4-yl)phenoxy)-2,4-dimethylpentan-2-amine] |
| 986 | Cc1nccc(-c2cnc(OCC(N)(CC(C)C)C(F)(F)F)c(C)c2)n1 (centres unmarked) [Example 274, 1,1,1-trifluoro-4-methyl-2-(((3-methyl-5-(2-methylpyrimidin-4-yl)pyridin-2-yl)oxy)methyl)pentan-2-amine] |
| 1.5 | Cc1nccc(-c2ccc(OC[C@@](C)(N)CC(C)C)c(Cl)c2)n1 [Example 469, (S)-1-(2-chloro-4-(2-methylpyrimidin-4-yl)phenoxy)-2,4-dimethylpentan-2-amine] |
